The test system of assay [1] is beet armyworm (BAW; Spodoptera exigua: Lepidoptera). As to the kind of experiment: 96-well microtiter plate-based high throughput (HTS) diet bioassay on beet armyworm (BAW HTS). Type of assay: in vivo. As to conditions: BAW eggs, 12 μg test compound per well, mortality at 6 d post-treatment, mortality class. Summed up:
(§1)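 HTS: eggs on diet topped with 12 μg cpd/well; dark, 29° C; mortality day 6; mean of 6 reps. Tray: 3–5 L2 larvae/well; diet dosed 50 μg/cm^2; 25° C, 14:10 L:D; 6 d; mean of 8 wells. Scored as ≥50% mortality or not.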

Assay [2] shares this test system. The assay is described as follows: 128-well diet tray assay on beet armyworm (BAW 50). The conditions noted are these: 128-well diet tray assay; 50 μg/cm^2 of test compound on diet; second instar BAW larvae; mortality class. In kind it is in vivo. Put shortly:
as §1

Setting [3] is: 96-well microtiter plate HTS diet assay.

For the compound `COC1C(C)OC(ON=Cc2ccc(-n3cnc(-c4ccc(C(F)(F)F)cc4)n3)cc2)C(OC)C1OC` (stereo not drawn) [Compound 72], the “BAW HTS” value is “A (the compound was tested and at least 50 percent mortality was observed)” in assay [1] (96-well HTS diet bioassay); “A (the compound was tested and at least 50 percent mortality was observed)” in assay [1] (setting [3]). Moreover, the “BAW 50 ug/cm2” value in assay [2] was “A (the compound was tested and at least 50 percent mortality was observed)”.
On to `CO[C@@H]1[C@@H](OC)[C@H](C)O[C@@H](O/N=C/c2ccc(C3=NN(c4ccccc4)CC3)cc2)[C@@H]1OC` [Compound 73], for which the “BAW HTS” value is “B (either (1) the compound was tested and less than 50 percent mortality was observed or (2) the compound was not tested)” in assay [1] (96-well HTS diet bioassay); “B (either (1) the compound was tested and less than 50 percent mortality was observed or (2) the compound was not tested)” in assay [1] (setting [3]). In addition, in assay [2], the “BAW 50 ug/cm2” value is “A (the compound was tested and at least 50 percent mortality was observed)”.
With `CCCOC1C(OC)C(C)OC(ON=Cc2ccc(-n3cnc(-c4ccc(C(F)(F)F)cc4)n3)cc2)C1OC` (stereo not drawn) [Compound 74], the “BAW HTS” value was “B (either (1) the compound was tested and less than 50 percent mortality was observed or (2) the compound was not tested)” in assay [1] (96-well HTS diet bioassay); “B (either (1) the compound was tested and less than 50 percent mortality was observed or (2) the compound was not tested)” in assay [1] (setting [3]). The “BAW 50 ug/cm2” value in assay [2] was “A (the compound was tested and at least 50 percent mortality was observed)”.
As to `COC1C(C)OC(ON=Cc2ccc(-c3cn(-c4ccc(Cl)cc4)nn3)cc2)C(OC)C1OC` (stereo not drawn) [Compound 75], the “BAW HTS” value in assay [1] (96-well HTS diet bioassay) is “A (the compound was tested and at least 50 percent mortality was observed)”; in assay [1] (setting [3]) it was “A (the compound was tested and at least 50 percent mortality was observed)”. Further, in assay [2], the “BAW 50 ug/cm2” value was “B (either (1) the compound was tested and less than 50 percent mortality was observed or (2) the compound was not tested)”.
On to `COC1C(C)OC(ON=Cc2ccc(-c3cn(-c4ccc(C)cc4)nn3)cc2)C(OC)C1OC` (stereo not drawn) [Compound 76], for which the “BAW HTS” value in assay [1] (96-well HTS diet bioassay) was “B (either (1) the compound was tested and less than 50 percent mortality was observed or (2) the compound was not tested)”; in assay [1] (setting [3]) it was “B (either (1) the compound was tested and less than 50 percent mortality was observed or (2) the compound was not tested)”. Moreover, the “BAW 50 ug/cm2” value in assay [2] was “B (either (1) the compound was tested and less than 50 percent mortality was observed or (2) the compound was not tested)”.
As for `COc1ccc(-n2cc(-c3ccc(C=NOC4OC(C)C(OC)C(OC)C4OC)cc3)nn2)cc1` (stereo not drawn) [Compound 77], the “BAW HTS” value in assay [1] (96-well HTS diet bioassay) was “B (either (1) the compound was tested and less than 50 percent mortality was observed or (2) the compound was not tested)”; in assay [1] (setting [3]), “B (either (1) the compound was tested and less than 50 percent mortality was observed or (2) the compound was not tested)”. Also, the “BAW 50 ug/cm2” value in assay [2] was “B (either (1) the compound was tested and less than 50 percent mortality was observed or (2) the compound was not tested)”.
With `COC1C(C)OC(ON=Cc2ccc(-c3cn(-c4ccc(C(F)(F)F)cc4)nn3)cc2)C(OC)C1OC` (stereo not drawn) [Compound 78], the “BAW HTS” value in assay [1] (96-well HTS diet bioassay) is “B (either (1) the compound was tested and less than 50 percent mortality was observed or (2) the compound was not tested)”; in assay [1] (setting [3]), “B (either (1) the compound was tested and less than 50 percent mortality was observed or (2) the compound was not tested)”. Besides, the “BAW 50 ug/cm2” value in assay [2] is “A (the compound was tested and at least 50 percent mortality was observed)”.
On to `COC1C(C)OC(ON=Cc2ccc(-c3cn(-c4ccc(OC(F)(F)F)cc4)nn3)cc2)C(OC)C1OC` (stereo not drawn) [Compound 79], for which the “BAW HTS” value in assay [1] (96-well HTS diet bioassay) is “B (either (1) the compound was tested and less than 50 percent mortality was observed or (2) the compound was not tested)”; in assay [1] (setting [3]), “B (either (1) the compound was tested and less than 50 percent mortality was observed or (2) the compound was not tested)”. Besides, in assay [2], the “BAW 50 ug/cm2” value was “A (the compound was tested and at least 50 percent mortality was observed)”.
For the compound `CO[C@@H]1[C@@H](OC)[C@H](C)O[C@@H](O/N=C/c2ccc(-c3ncn(-c4ccc(C(F)(F)F)cc4)n3)cc2)[C@@H]1OC` [Compound 80], the “BAW HTS” value in assay [1] (96-well HTS diet bioassay) is “A (the compound was tested and at least 50 percent mortality was observed)”; in assay [1] (setting [3]), “A (the compound was tested and at least 50 percent mortality was observed)”. The “BAW 50 ug/cm2” value in assay [2] was “A (the compound was tested and at least 50 percent mortality was observed)”.
For `CCCCc1ccc(-n2cnc(-c3ccc(C=NOC4OC(C)C(OC)C(OC)C4OC)cc3)n2)cc1` (stereo not drawn) [Compound 81], the “BAW HTS” value was “A (the compound was tested and at least 50 percent mortality was observed)” in assay [1] (96-well HTS diet bioassay); “A (the compound was tested and at least 50 percent mortality was observed)” in assay [1] (setting [3]). In addition, the “BAW 50 ug/cm2” value in assay [2] was “A (the compound was tested and at least 50 percent mortality was observed)”.
For the compound `COC1C(C)OC(ON=Cc2ccc(-c3ncn(-c4ccc(OC(F)(F)F)cc4)n3)cc2)C(OC)C1OC` (stereo not drawn) [Compound 82], the “BAW HTS” value in assay [1] (96-well HTS diet bioassay) was “B (either (1) the compound was tested and less than 50 percent mortality was observed or (2) the compound was not tested)”; in assay [1] (setting [3]), “B (either (1) the compound was tested and less than 50 percent mortality was observed or (2) the compound was not tested)”. Besides, the “BAW 50 ug/cm2” value in assay [2] is “A (the compound was tested and at least 50 percent mortality was observed)”.
`COC1C(C)OC(ON=Cc2ccc(-c3ncn(-c4ccc(C(C)C)cc4)n3)cc2)C(OC)C1OC` (stereo not drawn) [Compound 83]: the “BAW HTS” value in assay [1] (96-well HTS diet bioassay) is “B (either (1) the compound was tested and less than 50 percent mortality was observed or (2) the compound was not tested)”; in assay [1] (setting [3]) it was “B (either (1) the compound was tested and less than 50 percent mortality was observed or (2) the compound was not tested)”. The “BAW 50 ug/cm2” value in assay [2] was “A (the compound was tested and at least 50 percent mortality was observed)”.
Regarding `COC1C(C)OC(ON=Cc2ccc(-c3ncn(-c4ccc(Cl)cc4)n3)cc2)C(OC)C1OC` (stereo not drawn) [Compound 84], the “BAW HTS” value in assay [1] (96-well HTS diet bioassay) is “B (either (1) the compound was tested and less than 50 percent mortality was observed or (2) the compound was not tested)”; in assay [1] (setting [3]), “B (either (1) the compound was tested and less than 50 percent mortality was observed or (2) the compound was not tested)”. In addition, the “BAW 50 ug/cm2” value in assay [2] is “A (the compound was tested and at least 50 percent mortality was observed)”.
Take `COc1ccc(-n2cnc(-c3ccc(C=NOC4OC(C)C(OC)C(OC)C4OC)cc3)n2)cc1` (stereo not drawn) [Compound 85]: the “BAW HTS” value in assay [1] (96-well HTS diet bioassay) was “B (either (1) the compound was tested and less than 50 percent mortality was observed or (2) the compound was not tested)”; in assay [1] (setting [3]), “B (either (1) the compound was tested and less than 50 percent mortality was observed or (2) the compound was not tested)”. Also, the “BAW 50 ug/cm2” value in assay [2] is “A (the compound was tested and at least 50 percent mortality was observed)”.
Regarding `COC1C(C)OC(ON=Cc2ccc(-c3ncn(-c4ccc(C(C)(C)C)cc4)n3)cc2)C(OC)C1OC` (stereo not drawn) [Compound 86], the “BAW HTS” value is “B (either (1) the compound was tested and less than 50 percent mortality was observed or (2) the compound was not tested)” in assay [1] (96-well HTS diet bioassay); “B (either (1) the compound was tested and less than 50 percent mortality was observed or (2) the compound was not tested)” in assay [1] (setting [3]). In addition, the “BAW 50 ug/cm2” value in assay [2] is “A (the compound was tested and at least 50 percent mortality was observed)”.
In the case of `COC1C(C)OC(ON=Cc2ccc(-c3ncn(-c4ccc(SC(F)(F)F)cc4)n3)cc2)C(OC)C1OC` (stereo not drawn) [Compound 87], the “BAW HTS” value was “B (either (1) the compound was tested and less than 50 percent mortality was observed or (2) the compound was not tested)” in assay [1] (96-well HTS diet bioassay); “B (either (1) the compound was tested and less than 50 percent mortality was observed or (2) the compound was not tested)” in assay [1] (setting [3]). Further, in assay [2], the “BAW 50 ug/cm2” value is “A (the compound was tested and at least 50 percent mortality was observed)”.
Consider `COC1C(C)OC(ON=Cc2ccc(-c3ncn(-c4ccc(OC(F)(F)C(F)F)cc4)n3)cc2)C(OC)C1OC` (stereo not drawn) [Compound 88], for which the “BAW HTS” value in assay [1] (96-well HTS diet bioassay) is “B (either (1) the compound was tested and less than 50 percent mortality was observed or (2) the compound was not tested)”; in assay [1] (setting [3]) it was “B (either (1) the compound was tested and less than 50 percent mortality was observed or (2) the compound was not tested)”. In assay [2], the “BAW 50 ug/cm2” value was “A (the compound was tested and at least 50 percent mortality was observed)”.
Take `COC1C(C)OC(ON=Cc2ccc(-c3ncn(-c4ccc(OC(F)(F)C(F)(F)F)cc4)n3)cc2)C(OC)C1OC` (stereo not drawn) [Compound 89]: the “BAW HTS” value was “B (either (1) the compound was tested and less than 50 percent mortality was observed or (2) the compound was not tested)” in assay [1] (96-well HTS diet bioassay); “B (either (1) the compound was tested and less than 50 percent mortality was observed or (2) the compound was not tested)” in assay [1] (setting [3]). Further, the “BAW 50 ug/cm2” value in assay [2] is “A (the compound was tested and at least 50 percent mortality was observed)”.
Regarding `COC1C(C)OC(ON=Cc2ccc(-c3ncn(-c4ccc(SC)cc4)n3)cc2)C(OC)C1OC` (stereo not drawn) [Compound 90], the “BAW HTS” value in assay [1] (96-well HTS diet bioassay) was “B (either (1) the compound was tested and less than 50 percent mortality was observed or (2) the compound was not tested)”; in assay [1] (setting [3]), “B (either (1) the compound was tested and less than 50 percent mortality was observed or (2) the compound was not tested)”. Besides, in assay [2], the “BAW 50 ug/cm2” value is “A (the compound was tested and at least 50 percent mortality was observed)”.

Source of the values: patent US8178658B2 (Dow AgroSciences, LLC, priority 2008, dated 2012).
